The assay has as its target human σ1 receptor (Homo sapiens (Human), UniProt Q99720). Description: Human σ1 receptor radioligand assay. In kind it is binding. The following applies: transfected HEK-293 membranes, [3H](+)-pentazocine radioligand. On the procedure:
Human σ1 Receptor Radioligand Assay
The assay was carried out with 7 μg of membrane suspension, 5 nM of [^3H](+)-pentazocine in either absence or presence of either buffer or 10 μM Haloperidol for total and non-specific binding, respectively. Binding buffer contained Tris-HCl 50 mM at pH 8. Plates were incubated at 37° C. for 120 minutes. […] Filters were dried and counted at approximately 40% efficiency in a MicroBeta scintillation counter (Perkin-Elmer) using EcoScint liquid scintillation cocktail

Sequence of human σ1 receptor (Q99720 whole entry): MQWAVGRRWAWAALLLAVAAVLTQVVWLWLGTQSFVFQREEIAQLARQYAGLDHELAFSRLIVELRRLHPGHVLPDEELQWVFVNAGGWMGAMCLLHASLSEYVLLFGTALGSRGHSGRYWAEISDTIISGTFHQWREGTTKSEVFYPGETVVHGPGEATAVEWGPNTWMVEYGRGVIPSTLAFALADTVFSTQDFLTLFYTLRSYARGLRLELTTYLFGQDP

The Ki is the equilibrium dissociation constant of an inhibitor or competing ligand from its target. A higher Ki goes with weaker binding. With `CCN1CC2(CCN(CCC(C)(C)C)CC2)O[C@@H](C)C1=O` [Example 52, (S)-9-(3,3-dimethylbutyl)-4-ethyl-2-methyl-1-oxa-4,9-diazaspiro[5.5]undecan-3-one], the Ki is < 500 nM.

Source of the values: US11649248B2, “Oxadiazaspiro compounds for the treatment of drug abuse and addiction” (ESTEVE PHARMACEUTICALS, S.A., priority 2015, dated 2023).
